Counter-ions that a name gives are not always drawn.
Experiments:
Type in all cases: biochemical
[1] = molecular target: T1, recombinant human DAO (diamine oxidase) (Homo sapiens, UniProt P19801); assay: Activity on recombinant human DAO, method similar to the VAP-1 assay; conditions: substrate 1 mM putrescine; read-out: Inhibitory Activity (IC50, nM) DAO
T1 construct: purchased R&D systems
T1 sequence (P19801 20-751): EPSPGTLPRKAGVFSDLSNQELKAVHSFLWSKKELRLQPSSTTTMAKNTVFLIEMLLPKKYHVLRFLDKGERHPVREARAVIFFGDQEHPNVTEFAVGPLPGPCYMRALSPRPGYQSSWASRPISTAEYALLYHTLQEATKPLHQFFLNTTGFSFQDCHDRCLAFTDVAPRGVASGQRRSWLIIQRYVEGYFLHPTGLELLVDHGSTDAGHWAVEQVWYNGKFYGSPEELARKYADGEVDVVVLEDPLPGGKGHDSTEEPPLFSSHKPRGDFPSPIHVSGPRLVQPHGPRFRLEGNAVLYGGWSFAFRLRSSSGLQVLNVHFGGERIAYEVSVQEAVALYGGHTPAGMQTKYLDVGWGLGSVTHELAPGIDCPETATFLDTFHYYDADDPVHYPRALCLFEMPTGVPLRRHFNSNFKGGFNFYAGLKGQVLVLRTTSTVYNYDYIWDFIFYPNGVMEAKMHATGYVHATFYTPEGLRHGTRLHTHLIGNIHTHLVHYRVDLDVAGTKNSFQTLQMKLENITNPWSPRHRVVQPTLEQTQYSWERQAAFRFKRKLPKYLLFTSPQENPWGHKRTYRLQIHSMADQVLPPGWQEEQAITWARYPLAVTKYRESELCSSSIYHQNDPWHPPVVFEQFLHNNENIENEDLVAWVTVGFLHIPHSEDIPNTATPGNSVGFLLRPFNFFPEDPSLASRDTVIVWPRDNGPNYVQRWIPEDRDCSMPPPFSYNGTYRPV
Procedure: (§1) The compounds according to the present technology were evaluated in terms of activity on recombinant human VAP-1 (R&D systems) by measuring the level of hydrogen peroxide in horseradish peroxidase (HRP)-coupled reaction using Amplex Red Hydrogen Peroxide Assay Kit (Molecular Probes, Invitrogen, USA). The experiment was carried out at room temperature using benzylamine as a substrate. In the HRP-coupled reaction, hydrogen peroxide oxidation of 10-acetyl-3,7-dihydroxyphenoxazine (Amplex Red reagent) produces resorufin, which is a highly fluorescent compound. Briefly, the test compound was dissolved in dimethyl sulfoxide (DMSO) at a concentration of 20 mM. The dose-response assessment was made by 1:3 serial dilution in DMSO, thereby creating an 8 point curve. The concentration of the upper part was controlled according to the efficacy of the compounds, followed by dilution with a reaction buffer solution to obtain a final DMSO concentration less than 1%. To each well of a 96 black well plate, human VAP-1 purified in 50 mM sodium phosphate buffer solution (pH7.4) was added. The test compounds dissolved in DMSO were incubated with the human VAP-1 enzymes at 37° C. for 30 minutes. After 30-minute incubation, each well is added with a reaction mixture containing 200 uM Amplex Red reagent prepared from 50 mM sodium phosphate buffer solution (pH 7.4), 1 mM benzylamine, and 1 U/mL HRP. Fluorescence intensity was measured at several time points during 1-2 hours using a microplate reader (Flexstation3, Molecular Devices) under the wavelength condition exciting at 544 nm and reading the emission at 590 nm. The inhibitory effect of the compounds was measured as a decrease (%) in the signal rate as compared to the control group without any inhibitor (only diluted DMSO). Data was fixed to a logistic model with four variables and IC50 value was calculated using GraphPad Prism program.
(§2) In addition, the compounds according to the present technology were evaluated in terms of activity on a recombinant human MAO-A (monoamine oxidase-A, Sigma-Aldrich) and a recombinant human MAO-B (monoamine oxidase-B, Sigma-Aldrich) by using as substrates, 0.5 mM tyramine and 1 mM benzylamine, respectively, with a method similar to the activity evaluation method for recombinant human VAP-1. The compounds according to the present technology were also evaluated in terms of activity on a recombinant human DAO (diamine oxidase, R&D systems) by using as a substrate 1 mM putrescine with a method similar to the activity evaluation method for recombinant human VAP-1.

[2] = molecular target: T2, recombinant human MAO-B (monoamine oxidase-B) (Homo sapiens, UniProt P27338); assay: Activity on recombinant human MAO-B, method similar to the VAP-1 assay; conditions: substrate 1 mM benzylamine; read-out: Inhibitory Activity (IC50, nM) MAO-B
T2 construct: purchased Sigma-Aldrich
T2 sequence (P27338 1-520): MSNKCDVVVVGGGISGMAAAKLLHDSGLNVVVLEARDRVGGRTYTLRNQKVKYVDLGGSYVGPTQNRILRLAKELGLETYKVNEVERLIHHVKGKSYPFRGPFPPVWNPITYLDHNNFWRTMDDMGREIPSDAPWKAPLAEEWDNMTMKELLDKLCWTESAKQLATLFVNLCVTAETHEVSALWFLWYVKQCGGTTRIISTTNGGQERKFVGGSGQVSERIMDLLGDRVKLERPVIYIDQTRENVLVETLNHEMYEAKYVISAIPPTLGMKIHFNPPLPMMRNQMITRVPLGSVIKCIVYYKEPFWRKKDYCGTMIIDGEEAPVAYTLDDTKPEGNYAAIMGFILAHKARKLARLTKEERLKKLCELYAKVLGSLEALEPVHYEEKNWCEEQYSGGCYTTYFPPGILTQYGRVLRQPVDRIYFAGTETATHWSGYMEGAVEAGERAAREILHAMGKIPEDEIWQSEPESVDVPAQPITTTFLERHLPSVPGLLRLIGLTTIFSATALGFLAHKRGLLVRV
Procedure: as §1, §2

[3] = molecular target: T3, recombinant human VAP-1 (Homo sapiens, UniProt Q16853); assay: Activity on recombinant human VAP-1, HRP-coupled Amplex Red hydrogen peroxide assay; conditions: substrate 1 mM benzylamine; compound incubated with enzyme at 37° C. for 30 minutes; pH 7.4; read-out: Inhibitory Activity (IC50, nM) human VAP-1
T3 construct: purchased R&D systems
T3 sequence (Q16853 1-763): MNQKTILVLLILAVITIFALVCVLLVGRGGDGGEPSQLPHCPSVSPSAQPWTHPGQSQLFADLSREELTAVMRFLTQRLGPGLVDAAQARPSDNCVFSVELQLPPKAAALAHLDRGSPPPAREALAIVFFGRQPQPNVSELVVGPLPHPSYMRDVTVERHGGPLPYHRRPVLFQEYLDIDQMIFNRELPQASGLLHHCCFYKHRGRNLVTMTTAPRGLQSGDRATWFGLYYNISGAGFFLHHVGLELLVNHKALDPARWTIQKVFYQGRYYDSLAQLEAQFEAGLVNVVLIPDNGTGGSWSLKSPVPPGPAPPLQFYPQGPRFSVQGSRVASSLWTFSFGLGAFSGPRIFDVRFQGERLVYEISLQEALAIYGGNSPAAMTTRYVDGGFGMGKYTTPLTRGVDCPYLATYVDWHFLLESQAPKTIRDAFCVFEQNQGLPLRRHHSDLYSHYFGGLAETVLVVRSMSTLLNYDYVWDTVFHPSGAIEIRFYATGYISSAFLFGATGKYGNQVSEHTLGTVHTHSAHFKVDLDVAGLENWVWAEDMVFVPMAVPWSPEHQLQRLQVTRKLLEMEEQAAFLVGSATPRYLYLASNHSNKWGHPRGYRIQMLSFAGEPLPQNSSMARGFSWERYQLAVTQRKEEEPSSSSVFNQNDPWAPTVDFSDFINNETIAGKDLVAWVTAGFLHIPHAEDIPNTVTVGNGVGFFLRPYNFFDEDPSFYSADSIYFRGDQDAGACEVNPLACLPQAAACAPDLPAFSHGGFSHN
Procedure: as §1

[4] = molecular target: T4, recombinant human MAO-A (monoamine oxidase-A) (Homo sapiens, UniProt P21397); assay: Activity on recombinant human MAO-A, method similar to the VAP-1 assay; conditions: substrate 0.5 mM tyramine; read-out: Inhibitory Activity (IC50, nM) MAO-A
T4 construct: purchased Sigma-Aldrich
T4 sequence (P21397 1-527): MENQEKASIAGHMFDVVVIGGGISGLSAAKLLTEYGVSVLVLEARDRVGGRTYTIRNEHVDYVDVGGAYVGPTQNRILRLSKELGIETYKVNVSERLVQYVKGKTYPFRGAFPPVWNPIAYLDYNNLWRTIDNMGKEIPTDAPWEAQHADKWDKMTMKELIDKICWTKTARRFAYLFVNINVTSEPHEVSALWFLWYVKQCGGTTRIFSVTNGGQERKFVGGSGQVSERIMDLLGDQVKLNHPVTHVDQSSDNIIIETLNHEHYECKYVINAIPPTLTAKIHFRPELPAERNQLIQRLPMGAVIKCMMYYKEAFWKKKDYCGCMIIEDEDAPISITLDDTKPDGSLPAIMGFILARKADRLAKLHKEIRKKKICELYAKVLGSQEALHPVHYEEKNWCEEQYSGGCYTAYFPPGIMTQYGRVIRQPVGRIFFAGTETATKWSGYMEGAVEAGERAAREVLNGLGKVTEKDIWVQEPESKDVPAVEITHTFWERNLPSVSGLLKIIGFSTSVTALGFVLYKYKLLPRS
Procedure: as §1, §2

Structure (SMILES)	IC50 [1] [nM]	IC50 [2] [nM]	IC50 [3] [nM]	IC50 [4] [nM]
NC/C(=C\F)Cn1ncn(Cc2ccc(-c3ccc4c(c3)CCCO4)s2)c1=O [Example 109, 2-[(2E)-2-(aminomethyl)-3-fluoroprop-2-en-1-yl]-4-[5-(3,4-dihydro-2H-chromen-6-yl)thiophen-2-yl]methyl-2,4-dihydro-3H-1,2,4-triazol-3-one hydrochloride]	2540	104	2.7	25300
CS(=O)(=O)Nc1cccc(-c2ccc(Cn3cnn(C/C(=C/F)CN)c3=O)s2)c1 [Example 177, N-{3-[5-({1-[(2E)-2-(aminomethyl)-3-fluoroprop-2-en-1-yl]-5-oxo-1,5-dihydro-4H-1,2,4-triazol-4-yl}methyl)thiophen-2-yl]phenyl}methansulfonamide]	570	300	1.5	> 100000
NC/C(=C\F)Cn1ncn(Cc2ccc(-c3ccc(S(=O)(=O)N4CCOCC4)cc3)s2)c1=O [Example 198, 2-[(2E)-2-(aminomethyl)-3-fluoroprop-2-en-1-yl]-4-({5-[4-(morpholin-4-ylsulfonyl)phenyl]thiophen-2-yl}methyl)-2,4-dihydro-3H-1,2,4-triazol-3-one]	220	6200	2.2	
CN(C)c1ccc(-c2ccc(Cn3cnn(C/C(=C/F)CN)c3=O)s2)cc1 [Example 5, 2-[(2E)-2-(aminomethyl)-3-fluoroprop-2-en-1-yl]-4-(5-[4-(dimethylamino)phenyl]thiophen-2-ylmethyl)-2,4-dihydro-3H-1,2,4-triazol-3-one hydrochloride]		680	3.3	> 100000
CC(C)(C)NS(=O)(=O)c1cncc(-c2ccc(Cn3cnn(C/C(=C/F)CN)c3=O)s2)c1 [Example 186, 5-[5-({1-[(2E)-2-(aminomethyl)-3-fluoroprop-2-en-1-yl]-5-oxo-1,5-dihydro-4H-1,2,4-triazol-4-yl}methyl)thiophen-2-yl]-N-tert-butylpyridin-3-sulfonamide]	140	20000	2.4	

Continued by falling IC50 [2], values first:

IC50 [1] [nM]	IC50 [2] [nM]	IC50 [3] [nM]	IC50 [4] [nM]	Structure (SMILES)
670	4400	3.6	> 100000	NC/C(=C\F)Cn1ncn(Cc2ccc(-c3ccnnc3)s2)c1=O [Example 175, 2-[(2E)-2-(aminomethyl)-3-fluoroprop-2-en-1-yl]-4-{[5-(pyridazin-4-yl)thiophen-2-yl]methyl}-2,4-dihydro-3H-1,2,4-triazol-3-one]
1300	3000	2	> 100000	NC/C(=C\F)Cn1ncn(Cc2ccc(-c3ccc(N4CCCC4=O)cc3)s2)c1=O [Example 21, 2-[(2E)-2-(aminomethyl)-3-fluoroprop-2-en-1-yl]-4-(5-[4-(2-oxopyrrolidin-1-yl)phenyl]thiophen-2-ylmethyl)-2,4-dihydro-3H-1,2,4-triazol-3-one hydrochloride]
2400	1030	2.8	7900	CC(C)c1nc(-c2cccc(-c3ccc(Cn4cnn(C/C(=C/F)CN)c4=O)s3)c2)no1 [Example 38, 2-[(2E)-2-(aminomethyl)-3-fluoroprop-2-en-1-yl]-4-[(5-3-[5-(propan-2-yl)-1,2,4-oxadiazol-3-yl]phenylthiophen-2-yl)methyl]-2,4-dihydro-3H-1,2,4-triazol-3-one hydrochloride]
530	180	0.2	49000	NC/C(=C\F)Cn1ncn(Cc2ccc(C#Cc3ccc4c(c3)CCC(=O)N4)s2)c1=O [Example 133, 6-[2-[5-[[1-[(E)-2-(aminomethyl)-3-fluoro-allyl]-5-oxo-1,2,4-triazol-4-yl]methyl]-2-thienyl]ethynyl]-3,4-dihydro-1H-quinolin-2-one hydrochloride]
500	77	1.5	> 100000	COC(=O)c1ccc(-c2ccc(Cn3cnn(C/C(=C/F)CN)c3=O)s2)cc1 [Example 10, methyl 4-[5-(1-[(2E)-2-(aminomethyl)-3-fluoroprop-2-en-1-yl]-5-oxo-1,5-dihydro-4H-1,2,4-triazol-4-ylmethyl)thiophen-2-yl]benzoate hydrochloride]

Source: US11780830B2, “Triazolone derivatives or salts thereof and pharmaceutical compositions comprising the same” (YUHAN CORPORATION, priority 2018, dated 2023)
